Data reported in patent publication US10696678B2, “Kinase inhibitor, and preparing method and pharmaceutical use thereof” (GAN & LEE PHARMACEUTICALS, priority 2015, dated 2020).
Where two headings read alike, the source gives them in different places.

How the values were obtained:
[1] = test system: human breast cancer cell line MDB-MA-231; assay: Proliferation inhibition assay on human breast cancer cell line MDA-MB-231 (DAPI staining, In Cell Analyzer); assay type: cell-based
Method: Experimental Preparation:
1. MDA-MB-231 cells were seeded at 4000 cells/100 ul/well to a 96-well plate with black transparent bottom, and cultured overnight at 37° C.;
3. Fixation: the cell plate was taken, medium was removed, and 50 μl of 4% paraformaldehyde was added to each well and fixed 10 min;
4.50 μl 0.1 M glycine was added to neutralize for 10 min;
6. Permeabilization: 50 ul of 0.2% TritonX-100 was added to each well and permeabilized at room temperature for 10 min;
8.5 mg/mL DAPI stock solution was diluted at 1:5000 (final concentration 1 μg/ml) and the cells were stained at room temperature for 20 min.
10. The plate was scanned and analyzed on In cell analyser.

CDK4/D3 = CDK4/D3 (Homo sapiens (Human), UniProt P11802); assay: CDKs inhibition assay (ADP-Glo Kinase Assay), CDK4; conditions: for selectivity for CDK4/6 (over CDK1) compared with the control compound LY2835219: in words; for Ratio IC50 (CDK4)/IC50 (CDK1): smaller value = better selectivity for CDK4
Method: (2) Preparation of Test Compound:
(§1) a. Test compounds at a certain concentration were taken respectively, and diluted with kinase reaction buffer I to compound solutions with a final concentration of 50 μM;
(§2) 4. Preparation of reaction substrate and ATP mixed solution:
a. Preparation of ATP solution:
(§3) 200 μl of 0.1 mM ATP solution: 2 μl of 10 mM ATP was added into 198 μl kinase reaction buffer I;
(§4) 300 μl of 50 μl M ATP solution: 150 μl kinase reaction buffer I was added into 150 μl of above-mentioned 0.1 mM ATP solution;
(§5) b. Preparation of 300 μl reaction substrate solution:
(§6) 150 μl of 1 μg/μl reaction substrate stock solution was added into 150 μl kinase reaction buffer I and uniformly mixed;
(§7) c. Above-mentioned a/b solutions were mixed to obtain mixed solutions respectively.
(§8) 2 μl compound solution at each concentration was added into a 384-well plate respectively, and centrifuged for 3 min;
(§9) 4 μl kinase solution was added into each well, centrifuged at 5000 rpm for 10 min at 18° C., and shaked well for 10 min on a shaker;
(§10) 4 μl substrate and ATP mixed solution were added into each well, centrifuged at 5000 rpm for 10 min at 18° C., and shaked well for 90 min on a shaker at 37° C.;
(§11) The 384 well plate was removed and allow to achieve room temperature;
(§12) 10 μl ADP-Glo reagent was added into each well, centrifuged at 5000 rpm for 10 min at 18° C., and shaked well for 40 min on a shaker at 25° C. to terminate the reaction;
(§13) 20 μl kinase assay reagent was added into each well, centrifuged at 5000 rpm for 10 min at 18° C., and shaked well for 30 min on a shaker at 25° C.;
(§14) Fluorescence values were read by M1000pro microplate reader.
(§15) The inhibition rate of each compound at each concentration point was calculated according to the following equation, and IC50 value was calculated by curve fitting using GraphPad Prism 5 software.

CDK6/D3 = CDK6/D3 (Homo sapiens (Human), UniProt Q00534); assay: CDKs inhibition assay (ADP-Glo Kinase Assay), CDK6; conditions: for Ratio IC50 (CDK6)/IC50 (CDK1): smaller value = better selectivity for CDK6
Method: (2) Preparation of Test Compound:
as §1, §2
a. Preparation of ATP solution:
as §3, §4, §5, §6, §7, §8, §9, §10, §11, §12, §13, §14, §15

CDK1/A2 = CDK1/A2 (Homo sapiens (Human), UniProt P06493); assay: CDKs inhibition assay (ADP-Glo Kinase Assay), CDK1; conditions: read-out: IC50 (nM) CDK1/A2
Method: (2) Preparation of Test Compound:
as §1, §2
a. Preparation of ATP solution:
as §3, §4, §5, §6, §7, §8, §9, §10, §11, §12, §13, §14, §15

[2] = MDA-MB-231, read-out: IC50 for inhibition of proliferation of human breast cancer cell line MDB-MA-231, 72 h incubation
[3] = MDA-MB-231, 72 h, read-out: IC50 for inhibition of proliferation of human breast cancer cell line MDB-MA-231

| SMILES | IC50 [1, 2] [µM] | IC50 (CDK4/D3) [µM] | IC50 (CDK6/D3) [µM] | further results |
| --- | --- | --- | --- | --- |
| CC1Cc2nc3c(F)cc(-c4nc(Nc5ccc(N6CCNCC6)cn5)ncc4F)cc3n2C1 (stereo not shown) [Example 50, 5-Fluoro-4-(5-fluoro-2-methyl-2,3-dihydro-1H-benzo[d]pyrrolo[1,2-a]imidazol-7-yl)-N-(5-(piperazin-1-yl)pyridin-2-yl)pyrimidin-2-amine] | 3.65 | 0.0176 | 0.368 | – |
| Fc1cnc(Nc2ccc(N3CCNCC3)cn2)nc1-c1cc(F)c2nc3n(c2c1)CCCC3 [Example 13, 5-Fluoro-4-(6-fluoro-1,2,3,4-tetrahydrobenzo[4,5]imidazo[1,2-a]pyridin-8-yl)-N-(5-(piperazin-1-yl)pyridin-2-yl)pyrimidin-2-amine] | – | 0.018 | 0.0627 | IC50 [1, 3]: 1.17 µM |
| CCC1Cc2nc3c(F)cc(-c4nc(Nc5ccc(N6CCNCC6)cn5)ncc4F)cc3n2C1 (stereo not shown) [Example 52, 4-(2-Ethyl-5-fluoro-2,3-dihydro-1H-benzo[d]pyrrolo[1,2-a]imidazol-7-yl)-5-fluoro-N-(5-(piperazin-1-yl)pyridin-2-yl)pyrimidin-2-amine] | 1.68 | 0.0607 | 0.144 | – |
| CN1CCN(c2ccc(Nc3ncc(F)c(-c4cc(F)c5nc6n(c5c4)C(C)(C)CC6)n3)nc2)CC1 [Example 43, 5-Fluoro-4-(5-fluoro-1,1-dimethyl-2,3-dihydro-1H-benzo[d]pyrrolo[1,2-a]imidazol-7-yl)-N-(5-(4-methylpiperazin-1-yl)pyridin-2-yl)pyrimidin-2-amine] | 0.058 | 0.013 | 0.0003 | selectivity for CDK4/6 (over CDK1) compared with the control compound LY2835219 (CDK4/D3): better selectivity for CDK4/6 than the control compound; Ratio IC50 (CDK4)/IC50 (CDK1) (CDK4/D3): 0.018; Ratio IC50 (CDK6)/IC50 (CDK1) (CDK6/D3): 0.0004; IC50 (CDK1/A2): 732 nM |
| CCN1CCC(c2ccc(Nc3ncc(F)c(-c4cc(F)c5nc6n(c5c4)C(C)(C)CC6)n3)nc2)CC1 [Example 45, N-(5-(1-Ethylpiperidine-4-yl)pyridin-2-yl)-5-fluoro-4-(5-fluoro-1,1-dimethyl-2,3-dihydro-1H-benzo[d]pyrrolo[1,2-a]imidazol-7-yl)pyrimidin-2-amine] | – | 0.007 | 0.0217 | IC50 [1, 3]: 0.03 µM |
| CC1(C)CCc2nc3c(F)cc(-c4nc(Nc5ccc6c(n5)CCN(C(=O)CO)C6)ncc4F)cc3n21 [Example 21, 1-(2-((5-Fluoro-4-(5-fluoro-1,1-dimethyl-2,3-dihydro-1H-benzo[d]pyrrolo[1,2-a]imidazol-7-yl)pyrimidin-2-yl)amino)-7,8-dihydro-1,6-naphthyridin-6(5H)-yl)-2-hydroxyethan-1-one] | – | – | 0.0176 | – |
| CCC1CCc2nc3c(F)cc(-c4nc(Nc5ccc(N6CCNCC6)cn5)ncc4F)cc3n21 (stereo not shown) [Example 54, 4-(1-Ethyl-5-fluoro-2,3-dihydro-1H-benzo[d]pyrrolo[1,2-a]imidazol-7-yl)-5-fluoro-N-(5-(piperazin-1-yl)pyridin-2-yl)pyrimidin-2-amine] | 0.252 | 0.019 | 0.0096 | – |
| Cc1nc(Nc2ncc(F)c(-c3cc(F)c4nc5n(c4c3)C(C)CC5)n2)ccc1CC1CCNCC1 (stereo not shown) [Example 62, 5-Fluoro-4-(5-fluoro-1-methyl-2,3-dihydro-1H-benzo[d]pyrrolo[1,2-a]imidazol-7-yl)-N-(6-methyl-5-(piperidine-4-methylene)pyridin-2-yl)pyrimidin-2-amine] | 1.32 | 0.0017 | 0.034 | – |
| CCN1CCN(C(=O)c2ccc(Nc3ncc(F)c(-c4cc(F)c5nc6n(c5c4)C(C)(C)CC6)n3)nc2)CC1 [Example 32, (4-Ethylpiperazin-1-yl)(6-((5-fluoro-4-(5-fluoro-1,1-dimethyl-2,3-dihydro-1H-benzo[d]pyrrolo[1,2-a]imidazol-7-yl)pyrimidin-2-yl)amino)pyridin-3-yl)methyl ketone] | 0.579 | 0.049 | 0.013 | – |
| CC1(C)CCc2nc3c(F)cc(-c4nc(Nc5ccc(C6CCNCC6)cn5)ncc4F)cc3n21 [Example 26] | 0.214 | – | – | – |
| CC1(C)Cc2nc3c(F)cc(-c4nc(Nc5ccc(N6CCNCC6)cn5)ncc4F)cc3n2C1 [Example 55, 5-Fluoro-4-(5-fluoro-2,2-dimethyl-2,3-dihydro-1H-benzo[d]pyrrolo[1,2-a]imidazol-7-yl)-N-(5-(piperazin-1-yl)pyridin-2-yl)pyrimidin-2-amine] | – | – | – | IC50 (CDK1/A2): 6240 nM |
| Cc1nc(Nc2ncc(F)c(-c3cc(F)c4nc5n(c4c3)C(C)(C)CC5)n2)ccc1N1CCNCC1 [Example 31] | 0.129 | 0.002 | 0.055 | – |
| CC1(C)CCc2nc3c(F)cc(-c4ccnc(Nc5ccc(N6CCNCC6)cn5)n4)cc3n21 [Example 23, 4-(5-Fluoro-1,1-dimethyl-2,3-dihydro-1H-benzo[d]pyrrolo[1,2-a]imidazol-7-yl)-N-(5-(piperazin-1-yl)pyridin-2-yl)pyrimidin-2-amine] | 0.543 | – | 0.09 | – |
| CCN1CCC(Oc2ccc(Nc3ncc(F)c(-c4cc(F)c5nc6n(c5c4)C(C)(C)CC6)n3)nc2)CC1 [Example 33, N-(5-((1-Ethylpiperidine-4-yl)oxy)pyridin-2-yl)-5-fluoro-4-(5-fluoro-1,1-dimethyl-2,3-dihydro-1H-benzo[d]pyrrolo[1,2-a]imidazol-7-yl)pyrimidin-2-amine] | 0.02 | 0.0032 | 0.0076 | – |
| CC1CCc2nc3c(F)cc(-c4ccnc(Nc5ccc(N6CCNCC6)cn5)n4)cc3n21 (stereo not shown) [Example 72, 4-(5-Fluoro-1-methyl-2,3-dihydro-1H-benzo[d]pyrrolo[1,2-a]imidazol-7-yl)-N-(5-(piperazin-1-yl)pyridin-2-yl)pyrimidin-2-amine] | – | – | – | IC50 (CDK1/A2): 693 nM |
| CCN1CCC(c2ccc(Nc3ncc(F)c(-c4cc(F)c5nc6n(c5c4)C(C)CC6)n3)nc2)CC1 (stereo not shown) [Example 69, N-(5-(1-Ethylpiperidine-4-yl)pyridin-2-yl)-5-fluoro-4-(5-fluoro-1-methyl-2,3-dihydro-1H-benzo[d]pyrrolo[1,2-a]imidazol-7-yl)pyrimidin-2-amine] | – | 0.04 | 0.0244 | – |
| CN(C)C1CCN(c2ccc(Nc3ncc(F)c(-c4cc(F)c5nc6n(c5c4)C(C)(C)CC6)n3)nc2)CC1 [Example 71, N-(5-(4-(Dimethylamino)piperidine-1-yl)pyridin-2-yl)-5-fluoro-4-(5-fluoro-1,1-dimethyl-2,3-dihydro-1H-benzo[d]pyrrolo[1,2-a]imidazol-7-yl)pyrimidin-2-amine] | 0.046 | 0.001 | 0.014 | – |
| CC1CCc2nc3c(F)cc(-c4nc(Nc5ccc(C6CCNCC6)cn5)ncc4F)cc3n21 (stereo not shown) [Example 61] | 1.53 | 0.0039 | 0.08 | – |
| O=C(CO)N1CCc2nc(Nc3ncc(F)c(-c4cc(F)c5nc6n(c5c4)CCCC6)n3)ccc2C1 [Example 15, 1-(2-((5-Fluoro-4-(6-fluoro-1,2,3,4-tetrahydrobenzo[4,5]imidazo[1,2-a]pyridin-8-yl)pyrimidin-2-yl)amino)-7,8-dihydro-1,6-naphthyridin-6(5H)-yl)-2-hydroxyethan-1-one] | – | 0.028 | 0.0686 | IC50 [1, 3]: 1.23 µM |
| CC1CCc2nc3c(F)cc(-c4nc(Nc5ccc(C6CCN(C)CC6)cn5)ncc4F)cc3n21 (stereo not shown) [Example 66] | – | 0.0043 | 0.0214 | – |
| CCC1CCc2nc3c(F)cc(-c4nc(Nc5ccc(C6CCN(C)CC6)cn5)ncc4F)cc3n21 (stereo not shown) [Example 68, 4-(1-Ethyl-5-fluoro-2,3-dihydro-1H-benzo[d]pyrrolo[1,2-a]imidazolel-7-yl)-5-fluoro-N-(5-(1-methylpiperidine-4-yl)pyridin-2-yl)pyrimidin-2-amine] | – | 0.009 | 0.006 | – |
| C[C@H]1CN(Cc2ccc(Nc3ncc(F)c(-c4cc(F)c5nc6n(c5c4)C(C)(C)CC6)n3)nc2)CCN1C [Example 47, (S)—N-(5-((3,4-Dimethylpiperazin-1-yl)methyl)pyridin-2-yl)-5-fluoro-4-(5-fluoro-1,1-dimethyl-2,3-dihydro-1H-benzo[d]pyrrolo[1,2-a]imidazol-7-yl)pyrimidin-2-amine] | – | 0.0024 | 0.003 | selectivity for CDK4/6 (over CDK1) compared with the control compound LY2835219 (CDK4/D3): better selectivity for CDK4/6 than the control compound; Ratio IC50 (CDK4)/IC50 (CDK1) (CDK4/D3): 0.003; Ratio IC50 (CDK6)/IC50 (CDK1) (CDK6/D3): 0.004; IC50 (CDK1/A2): 745 nM |
| CC1CCc2nc3c(F)cc(-c4nc(Nc5ccc6c(n5)CCN(C(=O)CO)C6)ncc4F)cc3n21 (stereo not shown) [Example 58, 1-(2-((5-Fluoro-4-(5-fluoro-1-methyl-2,3-dihydro-1H-benzo[d]pyrrolo[1,2-a]imidazol-7-yl)pyrimidin-2-yl)amino)-7,8-dihydro-1,6-naphthyridin-6(5H)-yl)-2-hydroxyethan-1-one] | 0.458 | 0.028 | 0.0473 | – |
| CC1(C)CCc2nc3c(F)cc(-c4nc(Nc5ccc(OC6CCNCC6)cn5)ncc4F)cc3n21 [Example 34, 5-Fluoro-4-(5-fluoro-1,1-dimethyl-2,3-dihydro-1H-benzo[d]pyrrolo[1,2-a]imidazol-7-yl)-N-(5-(piperidine-4-yloxy)pyridin-2-yl)pyrimidin-2-amine] | 0.035 | 0.0039 | 0.0038 | – |
